Test results taken from patent US9474279B2, “Methods of controlling insects” (Syngenta Participations AG, priority 2012, dated 2016).

Key:
Assay type in all cases: in vivo
[1] = test system: Nilaparvata lugens (Brown Plant Hopper); experiment: Nilaparvata lugens (Brown Plant Hopper) rice seedling spray test, mortality; conditions: N3 nymphs, mortality 6-12 days after treatment
Description: Nilaparvata lugens (Brown Plant Hopper) Rice seedlings are treated with the diluted test solutions in a spray chamber. After drying, plants are infested with 20 N3 nymphs (2 replicates). 6-12 days after the treatment samples are checked for mortality

[2] = test system: Nephotettix virescens (Green Leafhopper); experiment: Nephotettix virescens (Green Leafhopper) rice seedling spray test, mortality; conditions: N5 nymphs, mortality 5 days after treatment
Description: […] Nephotettix virescens (Green Leafhopper) Rice seedlings are treated with the diluted test solutions in a spray chamber. After drying, plants are infested with 10 N5 nymphs (3 replicates). 5 days after the treatment samples are checked for mortality.

[3] = test system: Chilo suppressalis (Rice Stem Borer); experiment: Chilo suppressalis (Rice Stem Borer) treated rice leaf petri dish test, mortality; conditions: L2 larvae, mortality 5 days after treatment
Description: Chilo suppressalis (Rice Stem Borer) Rice seedlings are treated and after drying the leaves are cut and transferred into a petri dish coated with wet filter paper. 10 larvae (L2) are added and the dish is covered with a filter tissue and a plastic lid. 5 days after treatment the percentage mortality is assessed (3 replicates per concentration).

| Compound | Control/% ([1]; rate 12.5 ppm) | Control/% ([1]; rate 25 ppm) | Control/% ([1]; rate 50 ppm) | further results |
| --- | --- | --- | --- | --- |
| Cc1cc(C2=NOC(c3cc(Cl)cc(Cl)c3)(C(F)(F)F)C2)ccc1C(=O)NC1CON(C)C1=O (mixture of isomers) [Compound A1] | 93% | 93% | 98% | – |
| Cc1cc(C2=NOC(c3cc(Cl)cc(Cl)c3)(C(F)(F)F)C2)ccc1C(=O)NC1CON(CC(F)(F)F)C1=O (mixture of isomers) [Compound A2] | 80% | 98% | 99% | – |
| CCN1OCC(NC(=O)c2ccc(C3=NOC(c4cc(Cl)cc(Cl)c4)(C(F)(F)F)C3)cc2C)C1=O (mixture of isomers) [Compound A4] | 88% | 93% | 100% | – |
| Cc1cc(C2=NOC(c3cc(Cl)cc(Cl)c3)(C(F)(F)F)C2)ccc1C(=O)NC1CON(C)C1=O (mixture of isomers) [Compound A5] | 0% | 65% | 98% | – |
| CCN1OCC(NC(=O)c2ccc(C3=NOC(c4cc(Cl)c(Cl)c(Cl)c4)(C(F)(F)F)C3)cc2C)C1=O (mixture of isomers) [Compound A6] | 100% | 100% | 100% | – |
| CCN1OCC(NC(=O)c2ccc(C3=NOC(c4cc(Cl)c(Br)c(Cl)c4)(C(F)(F)F)C3)cc2C)C1=O (mixture of isomers) [Compound A7] | 100% | 100% | 100% | – |
| CCN1OCC(NC(=O)c2ccc(C3=NOC(c4cc(Cl)c(F)c(Cl)c4)(C(F)(F)F)C3)cc2C)C1=O (mixture of isomers) [Compound A8] | 100% | 100% | 100% | – |
| CCN1OCC(NC(=O)c2ccc(C3=NOC(c4cc(C(F)(F)F)c(Cl)c(C(F)(F)F)c4)(C(F)(F)F)C3)cc2C)C1=O (mixture of isomers) [Compound A10] | 100% | 100% | 100% | – |
| CCN1OCC(NC(=O)c2ccc(C3=NOC(c4cc(F)cc(Cl)c4)(C(F)(F)F)C3)cc2C)C1=O (mixture of isomers) [Compound A11] | 80% | 55% | 100% | – |
| CCN1OCC(NC(=O)c2ccc(C3=NOC(c4cc(Cl)cc(Cl)c4)(C(F)(F)F)C3)cc2C)C1=O (mixture of isomers) [Compound A18] | 100% | 100% | 100% | – |
| Cc1cc(C2=NOC(c3cc(Cl)cc(Cl)c3)(C(F)(F)F)C2)ccc1C(=O)NC1CON(CC(F)(F)F)C1=O (mixture of isomers) [Compound A19] | 100% | 100% | 100% | – |
| Cc1cc(C2=NOC(c3cc(Cl)cc(Cl)c3)(C(F)(F)F)C2)ccc1C(=O)NC1CON(CC(F)F)C1=O (mixture of isomers) [Compound A20] | 100% | 100% | 100% | – |
| CCN1OCC(NC(=O)c2ccc(C3=NOC(c4cc(Cl)c(F)c(Cl)c4)(C(F)(F)F)C3)cc2C)C1=O (mixture of isomers) [Compound A21] | – | – | 100% | – |
| Cc1cc(C2=NOC(c3cc(Cl)cc(Cl)c3)(C(F)(F)F)C2)ccc1C(=O)NC1CON(C)C1=O (mixture of isomers) [Compound A22] | 98% | 100% | 100% | – |
| Cc1cc(C2=NOC(c3cc(Cl)c(Cl)c(Cl)c3)(C(F)(F)F)C2)ccc1C(=O)NC1CON(CC(F)(F)F)C1=O (mixture of isomers) [Compound A23] | 90% | 98% | 100% | – |
| CCN1OCC(NC(=O)c2ccc(C3=NCC(c4cc(Cl)cc(Cl)c4)(C(F)(F)F)C3)cc2C)C1=O (mixture of isomers) [Compound B1] | 0% | 78% | 90% | – |
| CCN1OCC(NC(=O)c2ccc(C3=COC(c4cc(Cl)cc(Cl)c4)(C(F)(F)F)C3)cc2C)C1=O (mixture of isomers) [Compound C1] | 0% | 15% | 95% | – |
| CCN1OC[C@@H](NC(=O)c2ccc(C3=NO[C@@](c4cc(Cl)cc(Cl)c4)(C(F)(F)F)C3)cc2C)C1=O [Compound A3] | 100% | 100% | 100% | Control/% ([2]; application rate 3 ppm): 90%; Control/% ([2]; application rate 12 ppm): 100%; Control/% ([2]; application rate 50 ppm): 100%; Control/% ([2]; application rate 200 ppm): 100%; Control/% ([3]; application rate 0.05 ppm): 97%; Control/% ([3]; application rate 0.2 ppm): 100%; Control/% ([3]; application rate 0.8 ppm): 100% |

| Compound | Control/% ([1]; rate 12.5 ppm) | Control/% ([1]; rate 25 ppm) | Control/% ([1]; rate 50 ppm) | further results |
| --- | --- | --- | --- | --- |
| Cc1cc(C2=NO[C@@](c3cc(Cl)cc(Cl)c3)(C(F)(F)F)C2)ccc1C(=O)N[C@@H]1CON(CC(F)(F)F)C1=O [Compound A9] | 98% | 100% | 100% | Control/% ([2]; application rate 3 ppm): 100%; Control/% ([2]; application rate 12 ppm): 100%; Control/% ([2]; application rate 50 ppm): 100%; Control/% ([2]; application rate 200 ppm): 100%; Control/% ([3]; application rate 0.05 ppm): 43%; Control/% ([3]; application rate 0.2 ppm): 100%; Control/% ([3]; application rate 0.8 ppm): 100% |
| Cc1cc(C2=NO[C@@](c3cc(Cl)cc(Cl)c3)(C(F)(F)F)C2)ccc1C(=O)N[C@@H]1CON(CC(F)F)C1=O [Compound A12] | 100% | 100% | 100% | – |
| Cc1cc(C2=NO[C@@](c3cc(Cl)c(Cl)c(Cl)c3)(C(F)(F)F)C2)ccc1C(=O)N[C@@H]1CON(CC(F)(F)F)C1=O [Compound A13] | 75% | 100% | 98% | – |
| Cc1cc(C2=NO[C@@](c3cc(Cl)c(F)c(Cl)c3)(C(F)(F)F)C2)ccc1C(=O)N[C@@H]1CON(CC(F)(F)F)C1=O [Compound A14] | 100% | 100% | 100% | – |
| CCN1OC[C@@H](NC(=O)c2ccc(C3=NO[C@@](c4cc(Cl)cc(C(F)(F)F)c4)(C(F)(F)F)C3)cc2C)C1=O [Compound A15] | 99% | 99% | 100% | – |
| CCN1OC[C@@H](NC(=O)c2ccc(C3=NO[C@@](c4cc(Cl)cc(Br)c4)(C(F)(F)F)C3)cc2C)C1=O [Compound A16] | 95% | 97% | 98% | – |
| Cc1cc(C2=NO[C@@](c3cc(Cl)cc(Br)c3)(C(F)(F)F)C2)ccc1C(=O)N[C@@H]1CON(CC(F)(F)F)C1=O [Compound A17] | 100% | 100% | 100% | – |
| CCN1OC[C@@H](NC(=O)c2ccc(C3=NO[C@@](c4cc(Cl)c(F)c(Cl)c4)(C(F)(F)F)C3)cc2C)C1=O [Compound A24] | 75% | 85% | 98% | – |
| CCN1OC[C@@H](NC(=O)c2ccc(C3=NO[C@@](c4cc(Cl)c(F)c(Cl)c4)(C(F)(F)F)C3)cc2Cl)C1=O [Compound A25] | 100% | 100% | 100% | – |
| CCN1OC[C@@H](NC(=O)c2ccc(C3=NO[C@@](c4cc(Cl)cc(C(F)(F)F)c4)(C(F)(F)F)C3)c3ccccc23)C1=O [Compound A26] | 83% | 100% | 100% | – |
| CCN1OC[C@@H](NC(=O)c2ccc(C3=NO[C@@](c4cc(Cl)cc(Cl)c4)(C(F)(F)F)C3)cc2C(F)(F)F)C1=O [Compound A28] | 0% | 50% | 95% | – |
| CCN1OC[C@@H](NC(=O)c2ccc(C3=NO[C@@](c4cc(Cl)c(Cl)c(Cl)c4)(C(F)(F)F)C3)cc2C(F)(F)F)C1=O [Compound A29] | 55% | 88% | 100% | – |
| CCN1OC[C@@H](NC(=O)c2ccc(C3=NO[C@@](c4cccc(C(F)(F)F)c4)(C(F)(F)F)C3)cc2C)C1=O [Compound A30] | 93% | 100% | 98% | – |
| CCN1OC[C@@H](NC(=O)c2ccc(C3=NO[C@@](c4cc(Cl)c(Cl)c(Cl)c4)(C(F)(F)F)C3)cc2Br)C1=O [Compound A33] | 80% | 98% | 98% | – |
| CCN1OC[C@@H](NC(=O)c2ccc(C3=NO[C@@](c4cc(Cl)cc(Cl)c4)(C(F)(F)F)C3)cc2Br)C1=O [Compound A34] | 98% | 100% | 100% | – |
| CCN1OC[C@@H](NC(=O)c2ccc(C3=NO[C@@](c4cc(Cl)c(Cl)c(Cl)c4)(C(F)(F)F)C3)cc2C)C1=O [Compound A35] | 93% | 100% | 98% | – |
| CCN1OCC(NC(=O)c2ccc(C3=NCC(c4cc(Cl)cc(Cl)c4)(C(F)(F)F)C3)cc2C)C1=O (stereo not drawn) [Compound B2] | 15% | 70% | 88% | – |
| Cc1cc(C2=NCC(c3cc(Cl)cc(Cl)c3)(C(F)(F)F)C2)ccc1C(=O)NC1CON(CC(F)(F)F)C1=O (stereo not drawn) [Compound B3] | 100% | 100% | 100% | – |
